This experiment concerns the target GCN2 (Homo sapiens (Human), UniProt Q9P2K8). The experiment in a line: GCN2 Biochemical Assay (TR-FRET, GFP-eIF2S1 substrate phosphorylation). The conditions noted are these: read-out: IC50 (GCN2 Inhibitory Activity). The essentials: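 In-house GCN2 (1.6 nM 2× stock) phosphorylates GFP-eIF2S1 (50 nM 2× stock) with ATP (0.2 mM 2× stock) and tRNA, pH 7.5, 70 min at room temperature; 10-point 3.16-fold compound series. TR-FRET detection with Tb-anti-phospho antibody, 2–3 h, Ex 340/Em 490/520 nm; artifact plate spiked with phospho-substrate.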
(In general: Time-resolved FRET reads energy transfer from a long-lived donor to a nearby acceptor.)
GCN2, sequence (Q9P2K8 whole entry): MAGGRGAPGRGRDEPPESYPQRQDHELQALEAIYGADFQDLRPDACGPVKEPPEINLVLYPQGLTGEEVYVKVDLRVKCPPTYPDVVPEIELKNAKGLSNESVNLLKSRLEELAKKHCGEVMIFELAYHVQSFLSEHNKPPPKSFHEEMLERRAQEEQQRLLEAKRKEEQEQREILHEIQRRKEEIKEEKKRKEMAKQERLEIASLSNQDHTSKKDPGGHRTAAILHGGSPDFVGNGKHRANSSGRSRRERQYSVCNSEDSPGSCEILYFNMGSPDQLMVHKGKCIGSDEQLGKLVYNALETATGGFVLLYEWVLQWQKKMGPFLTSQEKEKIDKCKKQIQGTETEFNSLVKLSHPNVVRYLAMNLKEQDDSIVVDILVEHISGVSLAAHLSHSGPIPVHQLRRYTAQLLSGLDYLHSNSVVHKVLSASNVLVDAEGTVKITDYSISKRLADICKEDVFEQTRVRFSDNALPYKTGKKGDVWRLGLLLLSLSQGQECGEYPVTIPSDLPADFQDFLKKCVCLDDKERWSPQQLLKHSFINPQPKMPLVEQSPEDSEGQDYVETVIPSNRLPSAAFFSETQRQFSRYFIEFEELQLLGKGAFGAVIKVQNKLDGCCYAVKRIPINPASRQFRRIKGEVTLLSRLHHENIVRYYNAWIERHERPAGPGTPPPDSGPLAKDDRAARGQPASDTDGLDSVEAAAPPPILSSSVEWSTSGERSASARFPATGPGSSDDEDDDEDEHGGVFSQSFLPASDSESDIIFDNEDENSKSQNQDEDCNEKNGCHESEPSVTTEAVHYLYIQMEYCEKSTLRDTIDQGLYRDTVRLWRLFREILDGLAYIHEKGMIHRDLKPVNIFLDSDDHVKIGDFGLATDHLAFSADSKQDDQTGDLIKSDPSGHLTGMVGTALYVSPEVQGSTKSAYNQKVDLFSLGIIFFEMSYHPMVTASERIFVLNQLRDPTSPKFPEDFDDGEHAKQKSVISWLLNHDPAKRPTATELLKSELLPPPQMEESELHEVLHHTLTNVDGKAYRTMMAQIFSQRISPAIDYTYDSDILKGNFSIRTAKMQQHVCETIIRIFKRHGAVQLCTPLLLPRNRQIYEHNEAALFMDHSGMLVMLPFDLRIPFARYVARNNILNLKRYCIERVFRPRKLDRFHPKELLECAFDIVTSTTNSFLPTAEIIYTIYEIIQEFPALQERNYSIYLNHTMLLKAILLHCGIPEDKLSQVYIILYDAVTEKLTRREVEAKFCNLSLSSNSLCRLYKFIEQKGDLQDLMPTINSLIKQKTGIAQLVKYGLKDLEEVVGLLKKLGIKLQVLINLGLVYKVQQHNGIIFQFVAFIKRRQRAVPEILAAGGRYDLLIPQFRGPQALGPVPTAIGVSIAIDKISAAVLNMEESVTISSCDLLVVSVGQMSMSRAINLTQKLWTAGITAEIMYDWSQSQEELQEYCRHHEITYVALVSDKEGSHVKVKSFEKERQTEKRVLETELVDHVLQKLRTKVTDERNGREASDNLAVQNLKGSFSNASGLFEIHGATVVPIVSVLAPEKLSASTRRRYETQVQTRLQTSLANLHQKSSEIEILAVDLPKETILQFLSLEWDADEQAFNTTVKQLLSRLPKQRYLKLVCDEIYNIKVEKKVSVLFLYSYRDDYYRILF
Usually IC50 stands for the concentration at which inhibition is half-maximal. Take `Cc1cnc(Nc2cc(C)n(C)n2)nc1-c1c[nH]c2c(N3Cc4c(ccnc4-c4ccnc(F)c4)C3=O)cccc12` [Example 504, 2-(3-(2-((1,5-dimethyl-1H-pyrazol-3-yl)amino)-5-methylpyrimidin-4-yl)-1H-indol-7-yl)-4-(2-fluoropyridin-4-yl)-2,3-dihydro-1H-pyrrolo[3,4-c]pyridin-1-one]: the IC50 is less than 10 nM. As for `Cc1cnc(Nc2cc(C)n(C)n2)nc1-c1c[nH]c2c(NC(=O)CN3CC[C@H](C(=O)N4CCOCC4)C3)cccc12` [Example 63, (S)-N-(3-(2-((1,5-dimethyl-1H-pyrazol-3-yl)amino)-5-methylpyrimidin-4-yl)-1H-indol-7-yl)-2-(3-(morpholine-4-carbonyl)pyrrolidin-1-yl)acetamide], the IC50 was 100 to 1000 nM.

Take `Cc1cncc(C(=O)Nc2cccc3c2CN(c2cccc4c(-c5nc(Nc6cc(C)n(C)n6)ncc5C)c[nH]c24)C3=O)c1` [Example 334, N-(2-(3-(2-((1,5-dimethyl-1H-pyrazol-3-yl)amino)-5-methylpyrimidin-4-yl)-1H-indol-7-yl)-1-oxoisoindolin-4-yl)-5-methylnicotinamide]: the IC50 was in the range of 10 to 100 nM. To `Cc1cnc(Nc2cc(C)n(C)n2)nc1-c1c[nH]c2c(N3Cc4c(ccnc4Br)C3=O)cccc12` [Example 290, 4-bromo-2-(3-(2-((1,5-dimethyl-1H-pyrazol-3-yl)amino)-5-methylpyrimidin-4-yl)-1H-indol-7-yl)-2,3-dihydro-1H-pyrrolo[3,4-c]pyridin-1-one] belongs less than 10 nM; to `Cc1cnc(Nc2cc(C)n(C)n2)nc1-c1c[nH]c2c(NC(=O)CN3CC[C@@H](Nc4ccncn4)C3)cccc12` [Example 48, (R)-N-(3-(2-((1,5-dimethyl-1H-pyrazol-3-yl)amino)-5-methylpyrimidin-4-yl)-1H-indol-7-yl)-2-(3-(pyrimidin-4-ylamino)pyrrolidin-1-yl)acetamide], 10 to 100 nM. For the molecule `Cc1cnc(Nc2cc(C)n(C)n2)nc1-c1c[nH]c2c(N3Cc4ccccc4C3=O)cccc12` [Example 267, 2-(3-(2-((1,5-dimethyl-1H-pyrazol-3-yl)amino)-5-methylpyrimidin-4-yl)-1H-indol-7-yl)isoindolin-1-one], the IC50 was in the range of 10 to 100 nM. The same measure for `Cc1cnc(Nc2cc(C)n(C)n2)nc1-c1c[nH]c2c(N3Cc4c(cccc4C4=CCS(=O)(=O)CC4)C3=O)cccc12` [Example 468, 2-(3-(2-((1,5-dimethyl-1H-pyrazol-3-yl)amino)-5-methylpyrimidin-4-yl)-1H-indol-7-yl)-4-(1,1-dioxido-3,6-dihydro-2H-thiopyran-4-yl)isoindolin-1-one]: less than 10 nM. To `Cc1cnc(Nc2cc(C)n(C)n2)nc1-c1c[nH]c2c(NC(=O)CN3CC[C@H](Oc4ncc(F)c(NC5CC5)n4)C3)cccc12` [Example 179, (S)-2-(3-((4-(cyclopropylamino)-5-fluoropyrimidin-2-yl)oxy)pyrrolidin-1-yl)-N-(3-(2-((1,5-dimethyl-1H-pyrazol-3-yl)amino)-5-methylpyrimidin-4-yl)-1H-indol-7-yl)acetamide] belongs less than 10 nM; to `Cc1cnc(Nc2cc(C)n(C)n2)nc1-c1c[nH]c2c(NC(=O)CN3CC[C@H](Oc4cncc(NCCO)n4)C3)cccc12` [Example 246, (S)-N-(3-(2-((1,5-dimethyl-1H-pyrazol-3-yl)amino)-5-methylpyrimidin-4-yl)-1H-indol-7-yl)-2-(3-((6-((2-hydroxyethyl)amino)pyrazin-2-yl)oxy)pyrrolidin-1-yl)acetamide], 10 to 100 nM; to `Cc1cnc(Nc2cc(C)n(C)n2)nc1-c1c[nH]c2c(N3Cc4c(cccc4-c4cnc(N)nc4)C3=O)cccc12` [Example 418, 4-(2-aminopyrimidin-5-yl)-2-(3-(2-((1,5-dimethyl-1H-pyrazol-3-yl)amino)-5-methylpyrimidin-4-yl)-1H-indol-7-yl)isoindolin-1-one], less than 10 nM. To `Cc1ccc(S(=O)(=O)Nc2cccc3c2CN(c2cccc4c(-c5nc(Nc6cc(C)n(C)n6)ncc5C)c[nH]c24)C3=O)cc1` [Example 343, N-(2-(3-(2-((1,5-dimethyl-1H-pyrazol-3-yl)amino)-5-methylpyrimidin-4-yl)-1H-indol-7-yl)-1-oxoisoindolin-4-yl)-4-methylbenzenesulfonamide] belongs 10 to 100 nM; to `Cc1cnc(Nc2cc(C)n(C)n2)nc1-c1c[nH]c2c(NC(=O)CN3CC[C@H](Oc4nc(N(C)C)ncc4F)C3)cccc12` [Example 231, (S)-N-(3-(2-((1,5-dimethyl-1H-pyrazol-3-yl)amino)-5-methylpyrimidin-4-yl)-1H-indol-7-yl)-2-(3-((2-(dimethylamino)-5-fluoropyrimidin-4-yl)oxy)pyrrolidin-1-yl)acetamide], 10 to 100 nM. Consider `Cc1cnc(Nc2cc(C)n(C)n2)nc1-c1c[nH]c2c(N3Cc4cccc(C5=CCOCC5)c4C3=O)cccc12` [Example 385, 7-(3,6-dihydro-2H-pyran-4-yl)-2-(3-(2-((1,5-dimethyl-1H-pyrazol-3-yl)amino)-5-methylpyrimidin-4-yl)-1H-indol-7-yl)isoindolin-1-one], for which the IC50 lay in the range of 10 to 100 nM. The same measure for `CNc1nc(O[C@H]2CCN(CC(=O)Nc3cccc4c(-c5nc(Nc6cc(C)n(C)n6)ncc5C)c[nH]c34)C2)ncc1F` [Example 177, (S)-N-(3-(2-((1,5-dimethyl-1H-pyrazol-3-yl)amino)-5-methylpyrimidin-4-yl)-1H-indol-7-yl)-2-(3-((5-fluoro-4-(methylamino)pyrimidin-2-yl)oxy)pyrrolidin-1-yl)acetamide]: less than 10 nM; for `Cc1cnc(Nc2cc(C)n(C)n2)nc1-c1c[nH]c2c(N3Cc4cccc(N)c4C3=O)cccc12` [Example 276, 7-amino-2-(3-(2-((1,5-dimethyl-1H-pyrazol-3-yl)amino)-5-methylpyrimidin-4-yl)-1H-indol-7-yl)isoindolin-1-one]: 10 to 100 nM. To `CCN(CC)c1cc(O[C@H]2CCN(CC(=O)Nc3cccc4c(-c5nc(Nc6cc(C)n(C)n6)ncc5C)c[nH]c34)C2)ncn1` [Example 155, (S)-2-(3-((6-(diethylamino)pyrimidin-4-yl)oxy)pyrrolidin-1-yl)-N-(3-(2-((1,5-dimethyl-1H-pyrazol-3-yl)amino)-5-methylpyrimidin-4-yl)-1H-indol-7-yl)acetamide] belongs 10 to 100 nM. To `Cc1nc(C(=O)Nc2cccc3c2CN(c2cccc4c(-c5nc(Nc6cc(C)n(C)n6)ncc5C)c[nH]c24)C3=O)co1` [Example 322, N-(2-(3-(2-((1,5-dimethyl-1H-pyrazol-3-yl)amino)-5-methylpyrimidin-4-yl)-1H-indol-7-yl)-1-oxoisoindolin-4-yl)-2-methyloxazole-4-carboxamide] belongs less than 10 nM. With `Cc1cnc(Nc2cc(C)n(C)n2)nc1-c1c[nH]c2c(N3Cc4c(/C=C/c5cccc(F)c5)cccc4C3=O)cccc12` [Example 410, (E)-2-(3-(2-((1,5-dimethyl-1H-pyrazol-3-yl)amino)-5-methylpyrimidin-4-yl)-1H-indol-7-yl)-4-(3-fluorostyryl)isoindolin-1-one], the IC50 was in the range of 100 to 1000 nM. To `Cc1cnc(Nc2cc(C)n(C)n2)nc1-c1c[nH]c2c(N3Cc4c(cccc4-c4ccc(NC(=O)OC(C)(C)C)cc4)C3=O)cccc12` [Example 398, tert-butyl (4-(2-(3-(2-((1,5-dimethyl-1H-pyrazol-3-yl)amino)-5-methylpyrimidin-4-yl)-1H-indol-7-yl)-1-oxoisoindolin-4-yl)phenyl)carbamate] belongs 10 to 100 nM; to `Cc1cnc(Nc2cc(C)n(C)n2)nc1-c1c[nH]c2c(N3Cc4c(NCc5ccccc5)cccc4C3=O)cccc12` [Example 354, 4-(benzylamino)-2-(3-(2-((1,5-dimethyl-1H-pyrazol-3-yl)amino)-5-methylpyrimidin-4-yl)-1H-indol-7-yl)isoindolin-1-one], 10 to 100 nM. To `COc1ccc2c(-c3nc(Nc4cc(C)n(C)n4)ncc3C)c[nH]c2c1NC(=O)CN1CC[C@H](Oc2ccnc(NCC(F)(F)F)n2)C1` [Example 6, (S)-N-(3-(2-((1,5-dimethyl-1H-pyrazol-3-yl)amino)-5-methylpyrimidin-4-yl)-6-methoxy-1H-indol-7-yl)-2-(3-((2-((2,2,2-trifluoroethyl)amino)pyrimidin-4-yl)oxy)pyrrolidin-1-yl)acetamide] belongs 10 to 100 nM. The same measure for `Cc1cnc(Nc2cc(C)n(C)n2)nc1-c1c[nH]c2c(N3Cc4c(cccc4-c4ccc(Cl)nc4)C3=O)cccc12` [Example 405, 4-(6-chloropyridin-3-yl)-2-(3-(2-((1,5-dimethyl-1H-pyrazol-3-yl)amino)-5-methylpyrimidin-4-yl)-1H-indol-7-yl)isoindolin-1-one]: 10 to 100 nM; for `Cc1cnc(Nc2cc(C)n(C)n2)nc1-c1c[nH]c2c(NC(=O)CN3CC[C@H](Oc4cc(N5CCC(O)CC5)ncn4)C3)cccc12` [Example 163, (S)-N-(3-(2-((1,5-dimethyl-1H-pyrazol-3-yl)amino)-5-methylpyrimidin-4-yl)-1H-indol-7-yl)-2-(3-((6-(4-hydroxypiperidin-1-yl)pyrimidin-4-yl)oxy)pyrrolidin-1-yl)acetamide]: less than 10 nM; for `Cc1cnc(Nc2cc(C)n(C)n2)nc1-c1c[nH]c2c(NC(=O)CN3CC[C@H](Oc4cnc(-c5cccnc5)nc4)C3)cccc12` [Example 258, (S)-N-(3-(2-((1,5-dimethyl-1H-pyrazol-3-yl)amino)-5-methylpyrimidin-4-yl)-1H-indol-7-yl)-2-(3-((2-(pyridin-3-yl)pyrimidin-5-yl)oxy)pyrrolidin-1-yl)acetamide]: 10 to 100 nM.

Take `CC(=O)N1CC=C(c2cccc3c2CN(c2cccc4c(-c5nc(Nc6cc(C)n(C)n6)ncc5C)c[nH]c24)C3=O)CC1` [Example 466, 4-(1-acetyl-1,2,3,6-tetrahydropyridin-4-yl)-2-(3-(2-((1,5-dimethyl-1H-pyrazol-3-yl)amino)-5-methylpyrimidin-4-yl)-1H-indol-7-yl)isoindolin-1-one]: the IC50 is less than 10 nM.

The values above are taken from US20240025884A1 (Dong-A ST Co., Ltd., priority 2022, published 2024).
